Source: ChEMBL document CHEMBL5291721, “A preclinical secondary pharmacology resource illuminates target-adverse drug reaction associations of marketed drugs” (Nat Commun, 2023)

Tests used:
[1] = target: Beta-2 adrenergic receptor (Homo sapiens, UniProt P07550)
[2] = target: Glutamate receptor ionotropic, NMDA 1 (Rattus norvegicus, UniProt P35439)
Melanocortin receptor 4 = Melanocortin receptor 4 (Homo sapiens, UniProt P32245)
[3] = target: T1, Alpha-1A adrenergic receptor (Homo sapiens, UniProt P35348)
T1 sequence (P35348 whole entry): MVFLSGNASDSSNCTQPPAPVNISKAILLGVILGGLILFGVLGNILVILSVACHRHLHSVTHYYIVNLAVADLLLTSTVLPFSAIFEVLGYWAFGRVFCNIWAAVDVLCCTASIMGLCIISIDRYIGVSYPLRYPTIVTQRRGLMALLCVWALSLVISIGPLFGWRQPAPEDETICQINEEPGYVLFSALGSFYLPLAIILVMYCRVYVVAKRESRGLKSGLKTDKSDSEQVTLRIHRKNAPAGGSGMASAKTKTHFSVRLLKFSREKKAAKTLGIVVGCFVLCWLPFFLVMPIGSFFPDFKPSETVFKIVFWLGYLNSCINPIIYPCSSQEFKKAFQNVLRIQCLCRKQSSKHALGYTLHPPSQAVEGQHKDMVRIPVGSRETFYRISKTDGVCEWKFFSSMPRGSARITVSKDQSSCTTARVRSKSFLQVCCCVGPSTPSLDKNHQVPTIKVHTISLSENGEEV

[4] = target: Voltage-dependent L-type calcium channel subunit alpha-1C (Rattus norvegicus, UniProt P22002); format: functional
Voltage-dependent L-type calcium channel subunit alpha-1C, sequence (P22002 whole entry): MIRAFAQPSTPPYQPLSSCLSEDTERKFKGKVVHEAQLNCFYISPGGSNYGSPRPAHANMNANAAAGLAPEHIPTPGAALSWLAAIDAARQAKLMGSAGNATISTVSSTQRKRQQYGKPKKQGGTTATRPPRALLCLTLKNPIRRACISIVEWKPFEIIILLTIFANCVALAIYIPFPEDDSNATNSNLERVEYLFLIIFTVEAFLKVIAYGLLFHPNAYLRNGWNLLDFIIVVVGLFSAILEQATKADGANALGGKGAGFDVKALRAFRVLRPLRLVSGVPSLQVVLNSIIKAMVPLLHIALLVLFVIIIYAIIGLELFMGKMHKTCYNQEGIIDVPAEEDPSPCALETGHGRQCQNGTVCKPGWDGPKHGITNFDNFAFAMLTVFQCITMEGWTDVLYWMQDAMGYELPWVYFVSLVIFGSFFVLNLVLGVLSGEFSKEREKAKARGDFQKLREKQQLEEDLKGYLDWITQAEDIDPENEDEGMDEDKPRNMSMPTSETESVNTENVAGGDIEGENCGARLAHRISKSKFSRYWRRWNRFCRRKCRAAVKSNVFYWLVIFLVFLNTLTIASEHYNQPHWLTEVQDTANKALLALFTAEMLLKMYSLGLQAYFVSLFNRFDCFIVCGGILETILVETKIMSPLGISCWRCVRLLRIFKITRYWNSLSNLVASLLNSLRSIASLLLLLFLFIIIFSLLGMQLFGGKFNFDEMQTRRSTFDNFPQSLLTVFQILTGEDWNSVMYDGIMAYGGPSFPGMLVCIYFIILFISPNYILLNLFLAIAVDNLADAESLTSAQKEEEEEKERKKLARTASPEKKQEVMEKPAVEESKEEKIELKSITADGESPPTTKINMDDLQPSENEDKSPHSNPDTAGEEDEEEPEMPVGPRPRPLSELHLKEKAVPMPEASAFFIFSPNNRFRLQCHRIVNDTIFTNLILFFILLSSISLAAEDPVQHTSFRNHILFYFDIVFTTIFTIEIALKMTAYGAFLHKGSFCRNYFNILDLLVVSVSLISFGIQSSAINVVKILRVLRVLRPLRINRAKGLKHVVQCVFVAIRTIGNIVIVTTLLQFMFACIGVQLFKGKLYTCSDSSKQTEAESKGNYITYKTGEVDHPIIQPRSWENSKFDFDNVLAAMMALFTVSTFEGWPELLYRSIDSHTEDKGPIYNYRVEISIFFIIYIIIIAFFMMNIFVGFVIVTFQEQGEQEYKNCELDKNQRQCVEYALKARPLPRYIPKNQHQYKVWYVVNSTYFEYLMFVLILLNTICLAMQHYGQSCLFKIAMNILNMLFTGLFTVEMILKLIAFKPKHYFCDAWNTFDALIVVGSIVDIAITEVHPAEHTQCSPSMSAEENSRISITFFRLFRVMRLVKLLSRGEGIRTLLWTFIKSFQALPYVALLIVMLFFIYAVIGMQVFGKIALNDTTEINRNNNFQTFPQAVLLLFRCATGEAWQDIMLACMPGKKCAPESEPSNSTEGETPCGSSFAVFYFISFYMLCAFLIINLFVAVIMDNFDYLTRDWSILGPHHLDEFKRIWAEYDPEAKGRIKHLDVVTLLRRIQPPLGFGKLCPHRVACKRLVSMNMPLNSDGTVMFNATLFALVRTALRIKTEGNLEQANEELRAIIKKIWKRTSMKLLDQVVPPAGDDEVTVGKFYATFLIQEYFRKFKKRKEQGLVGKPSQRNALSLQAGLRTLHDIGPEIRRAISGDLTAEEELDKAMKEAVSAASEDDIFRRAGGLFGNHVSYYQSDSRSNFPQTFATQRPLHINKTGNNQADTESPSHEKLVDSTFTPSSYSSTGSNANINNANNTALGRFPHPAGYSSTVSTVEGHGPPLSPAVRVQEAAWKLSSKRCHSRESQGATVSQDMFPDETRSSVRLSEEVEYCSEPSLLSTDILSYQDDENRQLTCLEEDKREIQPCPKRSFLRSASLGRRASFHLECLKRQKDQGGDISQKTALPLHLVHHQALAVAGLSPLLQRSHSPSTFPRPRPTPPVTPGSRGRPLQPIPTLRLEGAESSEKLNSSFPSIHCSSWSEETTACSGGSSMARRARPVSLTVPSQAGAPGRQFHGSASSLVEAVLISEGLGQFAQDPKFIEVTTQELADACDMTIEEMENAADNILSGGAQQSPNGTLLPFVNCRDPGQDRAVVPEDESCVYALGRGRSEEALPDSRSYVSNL

Histamine H1 receptor = Histamine H1 receptor (Homo sapiens, UniProt P35367)
Histamine H1 receptor, sequence (P35367 whole entry): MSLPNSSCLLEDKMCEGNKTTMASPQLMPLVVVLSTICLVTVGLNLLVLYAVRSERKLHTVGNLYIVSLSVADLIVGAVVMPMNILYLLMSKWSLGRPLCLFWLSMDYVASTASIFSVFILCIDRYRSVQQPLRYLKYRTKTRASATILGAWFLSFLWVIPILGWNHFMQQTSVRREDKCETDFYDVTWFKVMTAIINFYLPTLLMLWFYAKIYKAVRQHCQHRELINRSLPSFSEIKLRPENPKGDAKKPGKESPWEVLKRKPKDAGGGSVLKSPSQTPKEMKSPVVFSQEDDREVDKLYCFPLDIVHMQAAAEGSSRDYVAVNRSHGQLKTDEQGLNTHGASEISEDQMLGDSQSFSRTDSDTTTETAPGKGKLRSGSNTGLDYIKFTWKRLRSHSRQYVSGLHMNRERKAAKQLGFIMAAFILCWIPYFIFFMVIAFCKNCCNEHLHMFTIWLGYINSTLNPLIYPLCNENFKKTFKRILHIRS

[5] = target: T2, Muscarinic acetylcholine receptor M1 (Homo sapiens, UniProt P11229); format: functional
T2 sequence (P11229 whole entry): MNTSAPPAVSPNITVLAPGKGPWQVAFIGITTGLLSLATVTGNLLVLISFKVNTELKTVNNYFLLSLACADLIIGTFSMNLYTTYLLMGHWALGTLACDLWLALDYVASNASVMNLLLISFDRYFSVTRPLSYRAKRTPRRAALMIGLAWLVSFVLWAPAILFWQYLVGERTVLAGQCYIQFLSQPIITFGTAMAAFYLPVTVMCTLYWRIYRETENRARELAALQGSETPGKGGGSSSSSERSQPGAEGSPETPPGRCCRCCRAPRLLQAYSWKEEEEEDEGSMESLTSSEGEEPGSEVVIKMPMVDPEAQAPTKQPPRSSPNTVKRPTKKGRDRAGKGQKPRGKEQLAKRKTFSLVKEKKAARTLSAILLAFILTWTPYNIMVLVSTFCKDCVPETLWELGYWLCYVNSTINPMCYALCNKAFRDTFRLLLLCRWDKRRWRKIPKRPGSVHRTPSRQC

[6] = target: Muscarinic acetylcholine receptor M3 (Homo sapiens, UniProt P20309)
Muscarinic acetylcholine receptor M3, sequence (P20309 whole entry): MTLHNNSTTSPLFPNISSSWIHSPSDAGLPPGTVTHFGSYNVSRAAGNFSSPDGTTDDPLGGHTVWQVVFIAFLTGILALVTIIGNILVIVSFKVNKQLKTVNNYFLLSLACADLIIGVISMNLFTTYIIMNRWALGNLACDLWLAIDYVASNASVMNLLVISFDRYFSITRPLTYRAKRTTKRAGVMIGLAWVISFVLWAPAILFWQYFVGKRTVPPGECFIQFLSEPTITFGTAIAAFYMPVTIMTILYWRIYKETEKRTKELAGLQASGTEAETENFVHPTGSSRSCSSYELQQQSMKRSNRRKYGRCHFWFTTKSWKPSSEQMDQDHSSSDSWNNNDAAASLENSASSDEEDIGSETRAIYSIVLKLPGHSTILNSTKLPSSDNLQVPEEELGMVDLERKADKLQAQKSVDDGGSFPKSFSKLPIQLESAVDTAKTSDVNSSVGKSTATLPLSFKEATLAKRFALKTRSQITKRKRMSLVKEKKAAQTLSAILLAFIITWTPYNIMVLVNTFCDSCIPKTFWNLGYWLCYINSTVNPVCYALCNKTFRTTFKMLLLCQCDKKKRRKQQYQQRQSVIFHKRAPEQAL

[7] = target: 3',5'-cyclic-AMP phosphodiesterase 4A (Homo sapiens, UniProt P27815); format: functional
Mu-type opioid receptor = Mu-type opioid receptor (Homo sapiens, UniProt P35372)
D(1A) dopamine receptor = D(1A) dopamine receptor (Homo sapiens, UniProt P21728)
D(1A) dopamine receptor, sequence (P21728 whole entry): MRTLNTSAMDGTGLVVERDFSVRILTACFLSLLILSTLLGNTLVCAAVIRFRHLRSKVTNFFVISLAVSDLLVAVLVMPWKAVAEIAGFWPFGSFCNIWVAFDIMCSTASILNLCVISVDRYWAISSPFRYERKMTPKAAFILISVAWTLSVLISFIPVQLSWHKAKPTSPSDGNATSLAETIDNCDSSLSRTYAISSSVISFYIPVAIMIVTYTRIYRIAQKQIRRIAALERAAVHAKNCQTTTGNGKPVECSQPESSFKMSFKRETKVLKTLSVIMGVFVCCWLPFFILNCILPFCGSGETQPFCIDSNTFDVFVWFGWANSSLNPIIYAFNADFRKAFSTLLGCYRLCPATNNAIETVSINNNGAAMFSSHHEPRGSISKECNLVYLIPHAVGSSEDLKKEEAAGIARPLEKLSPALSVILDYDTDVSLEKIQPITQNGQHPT

[8] = target: T1, Alpha-1A adrenergic receptor; format: functional, cell-based
[9] = target: cGMP-inhibited 3',5'-cyclic phosphodiesterase 3A (Homo sapiens, UniProt Q14432); format: functional
[10] = target: 5-hydroxytryptamine receptor 2B (Homo sapiens, UniProt P41595); format: functional, cell-based
5-hydroxytryptamine receptor 2B, sequence (P41595 whole entry): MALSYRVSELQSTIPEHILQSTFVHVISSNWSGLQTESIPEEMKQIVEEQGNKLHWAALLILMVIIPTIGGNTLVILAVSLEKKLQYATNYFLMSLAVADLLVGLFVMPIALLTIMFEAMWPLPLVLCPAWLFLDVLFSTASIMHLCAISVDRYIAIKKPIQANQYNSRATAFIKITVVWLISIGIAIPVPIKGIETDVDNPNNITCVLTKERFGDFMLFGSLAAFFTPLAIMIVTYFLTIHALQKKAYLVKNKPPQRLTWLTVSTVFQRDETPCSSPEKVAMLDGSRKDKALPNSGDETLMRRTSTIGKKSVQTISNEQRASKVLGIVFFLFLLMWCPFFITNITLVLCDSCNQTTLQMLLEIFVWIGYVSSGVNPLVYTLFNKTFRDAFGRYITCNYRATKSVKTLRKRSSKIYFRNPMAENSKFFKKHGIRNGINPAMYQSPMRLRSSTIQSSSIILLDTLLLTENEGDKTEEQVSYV
Also: assay procedure not described here.

Melanocortin receptor 4, sequence (P32245 whole entry): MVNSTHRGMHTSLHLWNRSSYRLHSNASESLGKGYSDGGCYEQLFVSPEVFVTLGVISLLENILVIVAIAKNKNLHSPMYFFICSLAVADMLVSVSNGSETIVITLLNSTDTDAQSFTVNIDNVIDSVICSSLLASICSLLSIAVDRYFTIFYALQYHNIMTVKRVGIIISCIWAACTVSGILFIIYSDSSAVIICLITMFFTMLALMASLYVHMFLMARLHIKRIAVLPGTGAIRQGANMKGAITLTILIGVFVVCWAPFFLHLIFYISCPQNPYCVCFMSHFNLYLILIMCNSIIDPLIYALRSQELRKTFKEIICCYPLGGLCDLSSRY
Beta-2 adrenergic receptor, sequence (P07550 whole entry): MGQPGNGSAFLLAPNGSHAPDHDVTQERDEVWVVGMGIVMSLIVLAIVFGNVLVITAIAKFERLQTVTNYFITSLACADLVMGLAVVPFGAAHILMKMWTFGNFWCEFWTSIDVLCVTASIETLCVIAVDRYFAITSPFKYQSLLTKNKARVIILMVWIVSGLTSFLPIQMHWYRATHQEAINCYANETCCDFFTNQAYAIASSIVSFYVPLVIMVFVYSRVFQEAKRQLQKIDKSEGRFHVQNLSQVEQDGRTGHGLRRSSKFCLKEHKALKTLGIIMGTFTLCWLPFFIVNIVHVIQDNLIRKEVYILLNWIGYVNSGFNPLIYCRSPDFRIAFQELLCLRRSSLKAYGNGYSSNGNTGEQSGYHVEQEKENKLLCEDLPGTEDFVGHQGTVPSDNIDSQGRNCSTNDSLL

Row | Structure (SMILES) | AC50 [1] | AC50 [2] | AC50 (Melanocortin receptor 4) | AC50 [3] | AC50 [4] | AC50 (Histamine H1 receptor) | AC50 [5] | AC50 [6] | AC50 [7] | AC50 (Mu-type opioid receptor) | AC50 (D(1A) dopamine receptor) | AC50 [8] | AC50 [9] | AC50 [10]
1 | O=C(O)COC(=O)Cc1ccccc1Nc1c(Cl)cccc1Cl [ACECLOFENAC] | > 10 µM | > 10 µM | > 30 µM | > 10 µM | > 10 µM |  |  |  |  |  |  |  |  | 
2 | CC[N+](CC)(CCNC(=O)C(=O)NCC[N+](CC)(CC)Cc1ccccc1Cl)Cc1ccccc1Cl [AMBENONIUM] |  | > 30 µM |  |  | > 30 µM | > 30 µM | 1.6 µM | 1.1 µM |  |  |  |  |  | 
3 | NCCCNCCSP(=O)(O)O [AMIFOSTINE] | > 30 µM | > 30 µM |  |  |  |  |  |  |  |  |  |  |  | 
4 | NCCCCCC(=O)O [AMINOCAPROIC ACID] | > 10 µM | > 10 µM | > 10 µM | > 10 µM | > 10 µM |  |  |  |  |  |  |  |  | 
5 | CC(C)NCC(O)COc1ccc(CC(N)=O)cc1 (stereo unspecified) [ATENOLOL] |  | > 30 µM | > 30 µM |  |  |  |  |  |  |  |  |  |  | 
6 | C[C@H](CS)C(=O)N1CCC[C@H]1C(=O)O [CAPTOPRIL] | > 10 µM | > 10 µM | > 30 µM | > 10 µM | > 10 µM |  |  |  |  |  |  |  |  | 
7 | NC(=O)C1(N2CCCCC2)CCN(CCCN2c3ccccc3CCc3ccccc32)CC1 [CARPIPRAMINE] |  |  |  |  |  |  |  |  | > 30 µM | 0.342 µM | 0.0928 µM | 13.7 µM | > 30 µM | > 30 µM
8 | CC(C)/N=c1\cc2n(-c3ccc(Cl)cc3)c3ccccc3nc-2cc1Nc1ccc(Cl)cc1 [CLOFAZIMINE] | > 30 µM | 22 µM |  |  | 5 µM | 8.56 µM | 13 µM | > 30 µM |  |  |  |  |  | 
9 | O=P1(N(CCCl)CCCl)NCCCO1 (stereo unspecified) [CYCLOPHOSPHAMIDE ANHYDROUS] |  |  |  |  |  |  |  |  | > 30 µM | > 30 µM | > 30 µM | > 30 µM | > 30 µM | > 30 µM
10 | COC(=O)CCc1ccc(OCC(O)CNC(C)C)cc1 (stereo unspecified) [ESMOLOL] | 27 µM | > 30 µM |  | > 30 µM | > 30 µM |  |  |  |  |  |  |  |  | 
11 | O=c1[nH]c2ccccc2n1CCN1CCN(c2cccc(C(F)(F)F)c2)CC1 [FLIBANSERIN] |  |  |  |  |  |  |  |  | > 30 µM | 1.3 µM | 2.43 µM | > 30 µM | > 30 µM | > 30 µM
12 | CCOC(=O)Nc1ccc(NCc2ccc(F)cc2)nc1N [FLUPIRTINE] | > 30 µM | > 30 µM |  |  | > 30 µM | > 30 µM | > 30 µM | > 30 µM |  |  |  |  |  | 
13 | CCN(CCO)CCCC(C)Nc1ccnc2cc(Cl)ccc12 (stereo unspecified) [HYDROXYCHLOROQUINE] | > 10 µM | > 10 µM | > 10 µM | > 10 µM | > 10 µM |  |  |  |  |  |  |  |  | 
14 | CNC1(c2ccccc2Cl)CCCCC1=O (stereo unspecified) [KETAMINE] |  |  |  |  |  |  |  |  | > 30 µM | 7.63 µM | > 30 µM | > 30 µM | > 30 µM | > 30 µM
15 | O=C(c1ccccc1)c1ccc2n1CCC2C(=O)O (stereo unspecified) [KETOROLAC] | > 10 µM | > 30 µM | > 10 µM | > 10 µM | > 30 µM |  |  |  |  |  |  |  |  | 
16 | Nc1nnc(-c2cccc(Cl)c2Cl)c(N)n1 [LAMOTRIGINE] | > 10 µM | > 10 µM | > 30 µM | > 10 µM |  |  |  |  |  |  |  |  |  | 
17 | CC(=O)NC[C@H]1CN(c2ccc(N3CCOCC3)c(F)c2)C(=O)O1 [LINEZOLID] |  | > 30 µM |  |  |  | > 30 µM | > 30 µM | > 30 µM |  |  |  |  |  | 
18 | CCC1(c2ccccc2)C(=O)NCNC1=O [PRIMIDONE] | > 10 µM | > 10 µM | > 10 µM | > 10 µM | > 10 µM |  |  |  |  |  |  |  |  | 
19 | CCOc1ccccc1OCCN[C@H](C)Cc1ccc(OC)c(S(N)(=O)=O)c1 [TAMSULOSIN] | 2.2 µM | > 10 µM | > 30 µM |  | > 10 µM | > 10 µM | > 10 µM | > 30 µM |  |  |  |  |  | 
20 | C[C@H](Cn1cnc2c(N)ncnc21)OCP(=O)(O)O [TENOFOVIR ANHYDROUS] | > 30 µM | > 30 µM | > 30 µM |  | > 30 µM | > 30 µM | > 30 µM | > 30 µM |  |  |  |  |  | 
